Measurements published in patent US20230149409A1, “TREATMENT OF HUMAN PAPILLOMAVIRUS-ASSOCIATED CANCERS BY PD-L1 INHIBITORS” (priority 2021, published 2023).
Marks after values point to notes of the source that are not given here.

How the values were obtained:
[1] = tested on: advanced solid tumors (HPV-positive tumors); experiment: Phase 1 open-label clinical trial of Compound 1; type: in vivo, human
From the text: This study is a Phase 1, open-label, dose-finding study for Compound 1 (see Table 1, supra). Eligible participants enrolled will receive Compound 1 as an oral tablet (50-mg, 100-mg, or 400-mg) during 21-day or 28-day cycles until disease progression, unacceptable toxicity, death, withdrawal of consent, or any other reason. Continuous treatment administration may be once daily (QD) or twice daily (BID).
Following a dose escalation study to identify a pharmacological active dose, this trial will enroll up to 60 participants with HPV-positive tumors at 1 or more pharmacologically active dose (PAD) doses to further evaluate safety, efficacy, PK, and pharmacodynamic effects. A maximum of 20 participants may be enrolled per dose level. Participants must have HPV-positive tumors as determined by a local laboratory using p16 IHC, polymerase chain reaction methods, or other locally-available method to detect HPV.
Participants are eligible to be included in the study only if all of the following criteria apply: • 1. Male and female participants must be ≥ 18 years of age at the time of signing the ICF. • 2. Ability to comprehend and willingness to sign an ICF. • 3. Must be willing and able to conform to and comply with all Protocol requirements, including all scheduled visits, Protocol procedures, and the ability to swallow oral medication. • 4. Histologically confirmed advanced solid tumors with measurable lesions (per RECIST v1.1 or RANO for primary brain tumors) that are considered nonamenable to surgery or other curative treatments or procedures. […] Participants must have disease progression after treatment with available therapies that are known to confer clinical benefit or who are intolerant to or ineligible for standard treatment. • 6. Willingness to undergo a tumor biopsy to obtain tumor tissue. • 7. Eastern Cooperative Oncology Group performance status score of 0 or 1. • 8. Life expectancy > 12 weeks. • 9. Willingness to avoid pregnancy or fathering children. • 10. For the cohort participating in the extension to participants with HPV-positive solid tumors: any HPV-positive solid tumor which has received prior standard therapy.
Adult patients (≥18 years) with advanced solid tumors were enrolled into this open-label study. Patients had disease progression after standard available therapy, or were intolerant of, or ineligible for standard treatment. Measureable disease was required. A modified 3+3 dose escalation design was employed, followed by dose expansions. The primary endpoints were safety and tolerability of Compound 1, identification of a pharmacologically active dose and/or maximum tolerated dose, and confirmation of the recommended Phase 2 dose. Secondary endpoints included PK, pharmacodynamics, and efficacy as assessed by investigator-determined objective response and disease control rates (complete response (CR), partial response (PR), or stable disease (SD)).
Patients that were confirmed to have HPV+ or confirmed to be HPV- are indicated below. Patients of unknown HPV status are also indicated.

[2] = tested on: select advanced solid tumors (HPV+ carcinomas); experiment: Phase 1 open-label clinical trial of Compound 30; type: in vivo, human; set-up: key: complete response (CR); partial response (PR); stable disease (SD); progressive disease (PD)
From the text: Two open-label, nonrandomized, global multicenter Phase 1 studies in participants with select advanced solid tumors are being conducted for Compounds 24 and 30 in Table 1 supra. In addition to the primary endpoint of determining safety, tolerability, PAD and/or maximum tolerated dose (MTD) of each compound, the studies are exploring preliminary efficacy (complete response (CR), partial response (PR), stable disease (SD), or progressive disease (PD)) in participants with select advanced cancers, including virally mediated tumors such as HPV+ carcinomas. HPV+ tumors can be determined by a local laboratory using p16 IHC, polymerase chain reaction methods, or other locally-available method to detect HPV. Results for patients having solid tumors whose HPV+ status was confirmed, suspected or negative are shown below for Compound 24 and Compound 30 in Tables 4 and 5, respectively.

[3] = Anal, Confirmed HPV+, 400 mg BID
[4] = Anal, Total (all HPV status), 400 mg BID
[5] = Anal, Unknown HPV status, 400 mg BID
[6] = Cervical, Confirmed HPV+, 400 mg BID
[7] = Cervical, Total (all HPV status), 400 mg BID
[8] = Total of tumor types, Confirmed HPV+
[9] = Total of tumor types, Total (all HPV status)
[10] = Total of tumor types, Unknown HPV status

How did the “ORR based on PR or CR” value ([1]; 14 evaluable patients, 400 mg BID or 800 mg BID, factoring in responses in patients with unknown HPV status) turn out when `Cc1c(Nc2nccc3cc(CN4CC[C@@H](O)C4)cnc23)cccc1-c1cccc(-c2nc3cc(CN4CC[C@@H](C(=O)O)C4)cc(C#N)c3o2)c1C` [Compound 1, (R)-1-((7-cyano-2-(3′-(3-(((R)-3-hydroxypyrrolidin-1-yl)methyl)-1,7-naphthyridin-8-ylamino)-2,2′-dimethylbiphenyl-3-yl)benzo[d]oxazol-5-yl)methyl)pyrrolidine-3-carboxylic acid] was run?
Its value is “about 28.6%”.

And the “number of patients with PD” value [1, 3]?
The value was 1.

And the “number of patients with SD” value [1, 3]?
Its value is 1.

And the “number of patients with PR/CR” value ([1]; Anal, Confirmed HPV+, patient received 800 mg BID)?
The value was 1^a.

And the “number of patients with PD” value [1, 4]?
Its value is 3.

And the “number of patients with SD” value [1, 4]?
The value was 2.

What about the “number of patients with PR/CR” value ([1]; Anal, Total (all HPV status), 400 or 800 mg BID) of the same compound?
The value was 3.

And the “number of patients with PD” value [1, 5]?
Its value is 2.

What about the “number of patients with SD” value [1, 5] of the same compound?
Its value is 1.

And the “number of patients with PR/CR” value ([1]; Anal, Unknown HPV status, 1 out of 2 patients received 800 mg BID)?
Its value is 2^b.

What about the “number of patients with PD” value [1, 6] of the same compound?
Its value is 2.

What about the “number of patients with SD” value [1, 6] of the same compound?
Its value is 1.

And the “number of patients with PD” value [1, 7]?
Its value is 2.

What about the “number of patients with SD” value [1, 7] of the same compound?
The value was 1.

What about the “number of patients with PD” value ([1]; HNSCC, Confirmed HPV-, patient received 800 mg BID) of the same compound?
Its value is 1^a.

And the “number of patients with PD” value ([1]; HNSCC, Total (all HPV status))?
The value was 1.

And the “number of patients with SD” value ([1]; Penile, Confirmed HPV+, 400 mg BID)?
Its value is 1.

What about the “number of patients with SD” value ([1]; Penile, Total (all HPV status), 400 mg BID) of the same compound?
The value was 1.

And the “number of patients with PD” value [1, 8]?
Its value is 3.

And the “number of patients with PR/CR” value [1, 8]?
The value was 2.

And the “number of patients with SD” value [1, 8]?
The value was 3.

And the “number of patients with PD” value ([1]; Total of tumor types, Confirmed HPV-)?
The value was 1.

What about the “number of patients with PD” value [1, 9] of the same compound?
The value was 6.

What about the “number of patients with PR/CR” value [1, 9] of the same compound?
The value was 4.

What about the “number of patients with SD” value [1, 9] of the same compound?
The value was 4.

What about the “number of patients with PD” value [1, 10] of the same compound?
The value was 2.

And the “number of patients with PR/CR” value [1, 10]?
The value was 2.

And the “number of patients with SD” value [1, 10]?
Its value is 1.

And the “number of patients with PR/CR” value ([1]; Vaginal, Confirmed HPV+, 400 mg BID)?
The value was 1.

And the “number of patients with PR/CR” value ([1]; Vaginal, Total (all HPV status), 400 mg BID)?
The value was 1.

`Cn1c(C(=O)Nc2cccc(-c3cccc(NC(=O)c4nc5c(n4C)CCN(CCC46CCC(C(=O)O)(CC4)C6)C5)c3Cl)c2Cl)nc2c1CCN(CCC13CCC(C(=O)O)(CC1)C3)C2` [Compound 30, 4,4′-(((((2,2′-dichloro-[1,1′-bipheiryl]-3,3′-diyl)bis(azanediyl))bis(carbonyl))bis(1-methyl-1,4,6,7-tetrahydro-5H-imidazo[4,5-c]pyridine-2,5-diyl))bis(ethane-2,1-diyl))bis(bicyclo[2.2.1]heptane-1-carboxylic acid)] was tested. Which “Best Overall Response” value ([2]; Patient 1, 300 mg BID, Cervical cancer (SCC), p16 positive) did it give?
Its value is “PR”.

And the “Best Overall Response” value ([2]; Patient 2, 300 mg BID, Nasopharyngeal (SCC), p16 negative)?
Its value is “SD”.

What about the “Best Overall Response” value ([2]; Patient 3, 300 mg BID, Cervical cancer (SCC), p16 positive) of the same compound?
The value was “SD”.

What about the “Best Overall Response” value ([2]; Patient 4, 400 mg BID, Cervical cancer (SCC), p16 positive) of the same compound?
Its value is “PD”.

And the “Best Overall Response” value ([2]; Patient 5, 400 mg BID, Nasopharyngeal (SCC), HPV/p16 status Not determined)?
Its value is “SD”.

What about the “Best Overall Response” value ([2]; Patient 6, 400 mg BID, Cervical cancer (SCC), Positive due to HSIL) of the same compound?
The value was “SD”.

What about the “Best Overall Response” value ([2]; Patient 7, 400 mg BID, Acinic cell parotid gland carcinoma, HPV/p16 status Not determined) of the same compound?
Its value is “PD”.

What about the “Best Overall Response” value ([2]; Patient 8, 400 mg BID, Cervical cancer (adenosquamous), p16 positive) of the same compound?
The value was “PR”.

And the “Best Overall Response” value ([2]; Patient 9, 600 mg QD, Cervical cancer (SCC), p16 positive)?
The value was “PD”.

And the “Best Overall Response” value ([2]; Patient 10, 600 mg QD, Cervical cancer (SCC and adenocarcinoma), HPV/p16 status Not determined)?
Its value is “PD”.

What about the “Best Overall Response” value ([2]; Patient 11, 600 mg BID, Cervical cancer (SCC), p16 positive) of the same compound?
The value was “PD”.

What about the “Best Overall Response” value ([2]; Patient 12, 600 mg BID, Penile cancer (SCC), p16 positive) of the same compound?
The value was “SD”.

And the “Best Overall Response” value ([2]; Patient 13, 200 mg BID, Anal canal (SCC), HPV/p16 status Not determined)?
Its value is “PD”.
